Assay results published in ChEMBL document CHEMBL5724914, “Linking interpersonal differences in gut microbiota composition and drug biotransformation activity” (2024).

Tests used:
[1] = The drug is tested on Z-020 corresponding to rabbit gut metagenome with ENA study accession number: PRJEB37062 and ENA sample accession number: ERS12561819 for biotransformation under anaerobic condition. The drug concentrations were measured over 9 timepoints collected between 0 and 24 hours of incubation by liquid-chromatography-coupled mass spectrometry (LC–MS); details: 2 µM
[2] = human gut metagenome, 24 h, 2 µM
[3] = The drug is tested on Z-007 corresponding to rat gut metagenome with ENA study accession number: PRJEB37062 and ENA sample accession number: ERS12561807 for biotransformation under anaerobic condition. The drug concentrations were measured over 9 timepoints collected between 0 and 24 hours of incubation by liquid-chromatography-coupled mass spectrometry (LC–MS); details: 2 µM
[4] = The drug is tested on Z-002 corresponding to rabbit gut metagenome with ENA study accession number: PRJEB37062 and ENA sample accession number: ERS12561802 for biotransformation under anaerobic condition. The drug concentrations were measured over 9 timepoints collected between 0 and 24 hours of incubation by liquid-chromatography-coupled mass spectrometry (LC–MS); details: 2 µM
[5] = The drug is tested on WLS-052 corresponding to human gut metagenome with ENA study accession number: PRJEB37062 and ENA sample accession number: ERS12561747 for biotransformation under anaerobic condition. The drug concentrations were measured over 9 timepoints collected between 0 and 24 hours of incubation by liquid-chromatography-coupled mass spectrometry (LC–MS); details: 2 µM
[6] = human gut metagenome, 24 h, 2 µM; remark: listed apart in the source
[7] = human gut metagenome, 24 h, 2 µM; remark: listed apart in the source
[8] = human gut metagenome, 24 h, 2 µM; remark: listed apart in the source
[9] = The drug is tested on WLS-098 corresponding to human gut metagenome with ENA study accession number: PRJEB37062 and ENA sample accession number: ERS12561754 for biotransformation under anaerobic condition. The drug concentrations were measured over 9 timepoints collected between 0 and 24 hours of incubation by liquid-chromatography-coupled mass spectrometry (LC–MS); details: 2 µM
[10] = human gut metagenome, 24 h, 2 µM; remark: listed apart in the source
[11] = human gut metagenome, 24 h, 2 µM; remark: listed apart in the source
[12] = human gut metagenome, 24 h, 2 µM; remark: listed apart in the source
[13] = human gut metagenome, 24 h, 2 µM; remark: listed apart in the source
[14] = The drug is tested on Z-018 corresponding to pig gut metagenome with ENA study accession number: PRJEB37062 and ENA sample accession number: ERS12561817 for biotransformation under anaerobic condition. The drug concentrations were measured over 9 timepoints collected between 0 and 24 hours of incubation by liquid-chromatography-coupled mass spectrometry (LC–MS); details: 2 µM
[15] = human gut metagenome, 24 h, 2 µM; remark: listed apart in the source
[16] = human gut metagenome, 24 h, 2 µM; remark: listed apart in the source
[17] = The drug is tested on WLS-170 corresponding to human gut metagenome with ENA study accession number: PRJEB37062 and ENA sample accession number: ERS12561762 for biotransformation under anaerobic condition. The drug concentrations were measured over 9 timepoints collected between 0 and 24 hours of incubation by liquid-chromatography-coupled mass spectrometry (LC–MS); details: 2 µM
[18] = The drug is tested on Z-023 corresponding to metagenome with ENA study accession number: PRJEB37062 and ENA sample accession number: ERS12561822 for biotransformation under anaerobic condition. The drug concentrations were measured over 9 timepoints collected between 0 and 24 hours of incubation by liquid-chromatography-coupled mass spectrometry (LC–MS); details: 2 µM
[19] = The drug is tested on WLS-006 corresponding to human gut metagenome with ENA study accession number: PRJEB37062 and ENA sample accession number: ERS12561741 for biotransformation under anaerobic condition. The drug concentrations were measured over 9 timepoints collected between 0 and 24 hours of incubation by liquid-chromatography-coupled mass spectrometry (LC–MS); details: 2 µM
[20] = The drug is tested on WLS-082 corresponding to human gut metagenome with ENA study accession number: PRJEB37062 and ENA sample accession number: ERS12561751 for biotransformation under anaerobic condition. The drug concentrations were measured over 9 timepoints collected between 0 and 24 hours of incubation by liquid-chromatography-coupled mass spectrometry (LC–MS); details: 2 µM
Note: call rule not given here.

Row | SMILES | Bacterial Biotransformation [1] | Bacterial Biotransformation [2] | Bacterial Biotransformation [3] | Bacterial Biotransformation [4] | Bacterial Biotransformation [5] | Bacterial Biotransformation [6] | Bacterial Biotransformation [7] | Bacterial Biotransformation [8] | Bacterial Biotransformation [9] | Bacterial Biotransformation [10] | Bacterial Biotransformation [11] | Bacterial Biotransformation [12] | Bacterial Biotransformation [13] | Bacterial Biotransformation [14] | Bacterial Biotransformation [15] | Bacterial Biotransformation [16] | Bacterial Biotransformation [17] | Bacterial Biotransformation [18] | Bacterial Biotransformation [19] | Bacterial Biotransformation [20]
1 | CN1C(=O)CC(C)(c2ccccc2)C1=O (stereo not given) [METHSUXIMIDE] | Compound NOT metabolized | Compound NOT metabolized | Compound NOT metabolized | Compound NOT metabolized | Compound NOT metabolized | Compound metabolized | Compound NOT metabolized | Compound NOT metabolized | Compound NOT metabolized | Compound NOT metabolized | Compound metabolized | Compound NOT metabolized | Compound NOT metabolized | Compound NOT metabolized | Compound NOT metabolized | Compound NOT metabolized | Compound metabolized | Compound NOT metabolized | Compound NOT metabolized | Compound NOT metabolized
2 | CNC(=C[N+](=O)[O-])NCCSCc1csc(CN(C)C)n1 [NIZATIDINE] | Compound NOT metabolized | Compound NOT metabolized | Compound NOT metabolized | Compound NOT metabolized | Compound NOT metabolized | Compound NOT metabolized | Compound NOT metabolized | Compound metabolized | Compound metabolized | Compound NOT metabolized | Compound metabolized | Compound NOT metabolized | Compound metabolized | Compound NOT metabolized | Compound NOT metabolized | Compound NOT metabolized | Compound metabolized | Compound NOT metabolized | Compound metabolized | Compound NOT metabolized
3 | COc1ccc2[nH]c([S+]([O-])Cc3ncc(C)c(OC)c3C)nc2c1 (stereo not given) [OMEPRAZOLE] | Compound NOT metabolized | Compound metabolized | Compound NOT metabolized | Compound NOT metabolized | Compound metabolized | Compound metabolized | Compound metabolized | Compound metabolized | Compound metabolized | Compound metabolized | Compound metabolized | Compound metabolized | Compound metabolized | Compound NOT metabolized | Compound metabolized | Compound metabolized | Compound metabolized | Compound NOT metabolized | Compound metabolized | Compound metabolized

Next, values leading:

Row | Bacterial Biotransformation [1] | Bacterial Biotransformation [2] | Bacterial Biotransformation [3] | Bacterial Biotransformation [4] | Bacterial Biotransformation [5] | Bacterial Biotransformation [6] | Bacterial Biotransformation [7] | Bacterial Biotransformation [8] | Bacterial Biotransformation [9] | Bacterial Biotransformation [10] | Bacterial Biotransformation [11] | Bacterial Biotransformation [12] | Bacterial Biotransformation [13] | Bacterial Biotransformation [14] | Bacterial Biotransformation [15] | Bacterial Biotransformation [16] | Bacterial Biotransformation [17] | Bacterial Biotransformation [18] | Bacterial Biotransformation [19] | Bacterial Biotransformation [20] | SMILES
4 | Compound NOT metabolized | Compound NOT metabolized | Compound NOT metabolized | Compound NOT metabolized | Compound NOT metabolized | Compound NOT metabolized | Compound NOT metabolized | Compound NOT metabolized | Compound NOT metabolized | Compound NOT metabolized | Compound NOT metabolized | Compound NOT metabolized | Compound NOT metabolized | Compound NOT metabolized | Compound NOT metabolized | Compound NOT metabolized | Compound NOT metabolized | Compound metabolized | Compound NOT metabolized | Compound NOT metabolized | COc1ccccc1N1CCN(CC(O)COc2cccc3ccccc23)CC1 (stereo not given) [NAFTOPIDIL]
5 | Compound metabolized | Compound metabolized | Compound NOT metabolized | Compound metabolized | Compound metabolized | Compound NOT metabolized | Compound metabolized | Compound metabolized | Compound metabolized | Compound metabolized | Compound NOT metabolized | Compound metabolized | Compound metabolized | Compound metabolized | Compound metabolized | Compound metabolized | Compound metabolized | Compound metabolized | Compound metabolized | Compound metabolized | O=C(O)CCc1nc(-c2ccccc2)c(-c2ccccc2)o1 [OXAPROZIN]
6 | Compound metabolized | Compound metabolized | Compound NOT metabolized | Compound metabolized | Compound metabolized | Compound metabolized | Compound metabolized | Compound metabolized | Compound metabolized | Compound metabolized | Compound metabolized | Compound metabolized | Compound metabolized | Compound metabolized | Compound metabolized | Compound metabolized | Compound metabolized | Compound metabolized | Compound metabolized | Compound metabolized | CC(C)(C)NC[C@H](O)COc1ccccc1C1CCCC1.CC(C)(C)NC[C@H](O)COc1ccccc1C1CCCC1.O=S(=O)(O)O [PENBUTOLOL SULFATE]
